In general, DC50 refers to the concentration at which degradation of the target reaches its halfway point. High values mean degradation only at high concentration, low ones degradation at low concentration. In general, Dmax refers to the greatest extent of degradation seen. The low end stands for a partial loss of target, the high end for a fuller loss of target.

The test system of one test is Del19/T790M/C797S EGFR. The test can be described thus: EGFR degradation HTRF assay in H1975-clone #28 (DTC) cells. It is filed as cell-based. The settings on record: H1975 # 28 DTC (Del19/T790M/C797S), 16h treatment; for DC50: HTRF; for Dmax (%): maximum percentage of degradation. In outline:
(§1)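 H1975 clones with endogenous EGFR knocked out and lentivirally expressed mutant EGFR treated 16 h at 37 °C with compounds, 8 doses from 10 uM, 5-fold dilutions, 0.2% DMSO. Lysates read by HTRF (665/620 nm) overnight; DC50 from four-parameter fit.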
For orientation: TR-FRET usually uses a lanthanide donor and a delayed reading to cut background.

A further test concerns the target T1, L858R/T790M/C797S EGFR (Homo sapiens, UniProt P00533, C797S/L858R/T790M).
T1 construct: expressed in transfected cells; host or cells: H1975 clone #25 (lentiviral over-expression, endogenous EGFR knocked out by sgRNA)
Briefly: EGFR degradation HTRF assay in H1975-clone #25 (LTC) cells. The class given is cell-based. The following applies: 16h treatment; for DC50: H1975 # 25-LTC (L858R/T790M/C797S), HTRF; for Dmax: NCI-H1975, H1975 # 25-LTC (L858R/T790M/C797S), maximum percentage of degradation. In outline:
as §1

T1 sequence (P00533 25-1210 T790M/C797S/L858R): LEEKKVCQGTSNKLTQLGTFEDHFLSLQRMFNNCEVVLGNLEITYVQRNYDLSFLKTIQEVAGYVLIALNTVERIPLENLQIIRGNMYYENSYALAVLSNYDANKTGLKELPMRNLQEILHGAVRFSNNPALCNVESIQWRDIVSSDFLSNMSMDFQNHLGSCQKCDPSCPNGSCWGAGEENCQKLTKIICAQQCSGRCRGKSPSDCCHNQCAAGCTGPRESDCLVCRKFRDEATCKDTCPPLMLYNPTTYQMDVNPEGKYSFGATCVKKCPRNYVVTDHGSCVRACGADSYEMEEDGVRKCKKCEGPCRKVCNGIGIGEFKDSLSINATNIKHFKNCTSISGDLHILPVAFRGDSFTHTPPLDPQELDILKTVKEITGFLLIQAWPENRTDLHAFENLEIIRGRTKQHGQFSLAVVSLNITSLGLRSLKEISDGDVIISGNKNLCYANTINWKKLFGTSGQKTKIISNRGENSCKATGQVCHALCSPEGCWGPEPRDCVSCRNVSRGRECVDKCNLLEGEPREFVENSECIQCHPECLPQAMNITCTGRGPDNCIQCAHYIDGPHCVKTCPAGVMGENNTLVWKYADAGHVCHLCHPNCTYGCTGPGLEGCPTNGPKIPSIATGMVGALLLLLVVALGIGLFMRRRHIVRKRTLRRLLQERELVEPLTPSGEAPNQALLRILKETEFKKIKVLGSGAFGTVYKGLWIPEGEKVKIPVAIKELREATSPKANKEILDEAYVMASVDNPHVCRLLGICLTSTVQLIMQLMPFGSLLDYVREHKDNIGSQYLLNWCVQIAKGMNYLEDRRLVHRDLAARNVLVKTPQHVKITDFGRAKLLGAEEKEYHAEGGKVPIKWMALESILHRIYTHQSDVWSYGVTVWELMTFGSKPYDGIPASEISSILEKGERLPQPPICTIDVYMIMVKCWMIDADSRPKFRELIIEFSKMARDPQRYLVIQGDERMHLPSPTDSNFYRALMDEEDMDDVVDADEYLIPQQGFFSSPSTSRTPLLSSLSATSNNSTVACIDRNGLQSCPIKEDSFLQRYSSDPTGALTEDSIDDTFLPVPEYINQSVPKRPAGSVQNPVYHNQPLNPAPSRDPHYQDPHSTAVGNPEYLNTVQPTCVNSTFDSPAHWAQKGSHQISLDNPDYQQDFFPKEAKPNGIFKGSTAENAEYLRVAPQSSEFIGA

On to `Cc1cc2cc(n1)-c1cnn(C)c1OCCC[C@@H](C)CN1/C(=N/C2=O)Nc2ccc(N(C)C3CCN(C(=O)[C@@H]4CCN(c5cc(F)c([C@H]6CCC(=O)NC6=O)c(F)c5)C4)CC3)cc21` [Example 172, (R)-3-(2,6-difluoro-4-((R)-3-(4-(methyl((R,E)-1^1,2^6,7-trimethyl-3-oxo-5^2,5^3-dihydro-1^1H,5^1H-11-oxa-4-aza-5(2,1)-benzo[d]imidazola-2(2,4)-pyridina-1(4,5)-pyrazolacycloundecaphane-5^6-yl)amino)piperidine-1-carbonyl)pyrrolidin-1-yl)phenyl)piperidine-2,6-dione], for which, in the test on Del19/T790M/C797S EGFR, the DC50 came to 0.663 nM and the “Dmax (%)” value stood at 75.08%. On L858R/T790M/C797S EGFR, this molecule registered a DC50 of 0.954 nM and a Dmax of 90.6%.

Take `Cc1cc2cc(n1)-c1cnn(C)c1OCCC[C@@H](C)CN1/C(=N/C2=O)Nc2ccc(C(=O)N(CCN3CCN(c4cc(F)c([C@H]5CCC(=O)NC5=O)c(F)c4)CC3)C(C)C)cc21` [Example 282, (R,E)-N-(2-(4-(4-((R)-2,6-dioxopiperidin-3-yl)-3,5-difluorophenyl)piperazin-1-yl)ethyl)-N-isopropyl-1^1,2^6,7-trimethyl-3-oxo-5^2,5^3-dihydro-1^1H,5^1H-11-oxa-4-aza-5(2,1)-benzo[d]imidazola-2(2,4)-pyridina-1(4,5)-pyrazolacycloundecaphane-5^6-carboxamide]: in the test on Del19/T790M/C797S EGFR, the DC50 worked out at 0.657 nM and the “Dmax (%)” value is 77.76%. At L858R/T790M/C797S EGFR, the half-maximal degradation concentration (DC50) was 0.752 nM and the Dmax is 82.9%.

On to `Cc1cc2cc(n1)-c1cnn(C)c1OCCC[C@@H](C)CN1/C(=N/C2=O)Nc2ccc(CN3CC4(C3)CN(C(=O)C3CN(c5cc(F)c([C@H]6CCC(=O)NC6=O)c(F)c5)C3)C4)cc21` [Example 79, (R)-3-(2,6-difluoro-4-(3-(6-(((R,E)-1^1,2^6,7-trimethyl-3-oxo-5^2,5^3-dihydro-1^1H,5^1H-11-oxa-4-aza-5(2, 1)-benzo[d]imidazola-2(2,4)-pyridina-1(4,5)-pyrazolacycloundecaphane-5^6-yl)methyl)-2,6-diazaspiro[3.3]heptane-2-carbonyl)azetidin-1-yl)phenyl)piperidine-2,6-dione], for which, in the test on Del19/T790M/C797S EGFR, the DC50 stood at 0.7 nM and the “Dmax (%)” value is on record as 82.2%. At L858R/T790M/C797S EGFR, this molecule displayed a DC50 of 0.6 nM and a Dmax of 90.6%.

In the case of `Cc1cc2cc(n1)-c1cnn(C)c1OCCC[C@@H](C)CN1/C(=N/C2=O)Nc2ccc(CN3CCN(C(=O)[C@@H]4CCN(c5cc(F)c([C@H]6CCC(=O)NC6=O)c(F)c5)C4)CC3=O)cc21` [Example 200, (R)-3-(2,6-difluoro-4-((R)-3-(3-oxo-4-(((R,E)-1^1,2^6,7-trimethyl-3-oxo-5^2,5^3-dihydro-1^1H,5^1H-11-oxa-4-aza-5(2,1)-benzo[d]imidazola-2(2,4)-pyridina-1(4,5)-pyrazolacycloundecaphane-5^6-yl)methyl)piperazine-1-carbonyl)pyrrolidin-1-yl)phenyl)piperidine-2,6-dione], in the test on Del19/T790M/C797S EGFR, the DC50 was 1.38 nM and the “Dmax (%)” value is given as 73.04%. Further, at L858R/T790M/C797S EGFR, half-maximal degradation (DC50) was put at 1.22 nM and the Dmax was found to be 86%.

With `Cc1cc2cc(n1)-c1cnn(C)c1OCCC[C@@H](C)CN1/C(=N/C2=O)Nc2ccc(C(=O)N(C)[C@@H]3CCN(CCc4cc(F)c([C@H]5CCC(=O)NC5=O)c(F)c4)C[C@H]3C)cc21` [Example 257, (R,E)-N—((3R,4R)-1-(4-((R)-2,6-dioxopiperidin-3-yl)-3,5-difluorophenethyl)-3-methylpiperidin-4-yl)-N,1^1,2^6,7-tetramethyl-3-oxo-5^2,5^3-dihydro-1^1H,5^1H-11-oxa-4-aza-5(2,1)-benzo[d]imidazola-2(2,4)-pyridina-1(4,5)-pyrazolacycloundecaphane-5^6-carboxamide], in the test on Del19/T790M/C797S EGFR, the DC50 turned out to be 0.57 nM and the “Dmax (%)” value is on record as 80.82%. On L858R/T790M/C797S EGFR, it took 0.512 nM to reach half-maximal degradation (DC50) and the Dmax is 88%.

Consider `Cc1cc2cc(n1)-c1cnn(C)c1OCCC[C@@H](C)CN1/C(=N/C2=O)Nc2ccc(CCN3CCN(c4cc(F)c([C@H]5CCC(=O)NC5=O)c(F)c4)CC3)cc21` [Example 446, (R)-3-(2,6-difluoro-4-(4-(2-((R,E)-1^1,2^6,7-trimethyl-3-oxo-5^2,5^3-dihydro-1^1H,5^1H-11-oxa-4-aza-5(2,1)-benzo[d]imidazola-2(2,4)-pyridina-1(4,5)-pyrazolacycloundecaphane-5^6-yl)ethyl)piperazin-1-yl)phenyl)piperidine-2,6-dione], for which, in the test on Del19/T790M/C797S EGFR, half-maximal degradation (DC50) was put at 1.19 nM and the “Dmax (%)” value is recorded as 76.42%. Moreover, on L858R/T790M/C797S EGFR, the DC50 is 0.696 nM and the Dmax came to 91.8%.

`Cc1cc2cc(n1)-c1cnn(C)c1OCC[C@@H]1C[C@H]1CN1/C(=N/C2=O)Nc2ccc(N3CCN(C4CCN(c5cc(F)c([C@H]6CCC(=O)NC6=O)c(F)c5)CC4)CC3)cc21` [Example 441, (R)-3-(4-(4-(4-((7′R,7^2S,E)-1^1,2^6-dimethyl-3-oxo-5^2,5^3-dihydro-1^1H,5^1H-10-oxa-4-aza-5(2,1)-benzo[d]imidazola-2(2,4)-pyridina-1(4,5)-pyrazola-7(1,2)-cyclopropanacyclodecaphane-5^6-yl)piperazin-1-yl)piperidin-1-yl)-2,6-difluorophenyl)piperidine-2,6-dione]: in the test with Del19/T790M/C797S EGFR, it took 0.643 nM to reach half-maximal degradation (DC50) and the “Dmax (%)” value is reported as 89.27%. At L858R/T790M/C797S EGFR, this molecule had a DC50 of 0.857 nM and a Dmax of 89.2%.

In the case of `Cc1cc2cc(n1)-c1cnn(C)c1OCCCC1(CC1)CN1/C(=N/C2=O)Nc2ccc(C(=O)N(C)C3CCN(CCc4cc(F)c([C@H]5CCC(=O)NC5=O)c(F)c4)CC3)cc21` [Example 236, (R,E)-N-(1-(4-(2,6-dioxopiperidin-3-yl)-3,5-difluorophenethyl)piperidin-4-yl)-N,1′,6′-trimethyl-3′-oxospiro[cyclopropane-1,7′-11-oxa-4-aza-5(2,1)-benzo[d]imidazola-2(2,4)-pyridina-1(4,5)-pyrazolacycloundecaphane]-6′-carboxamide], in the test on Del19/T790M/C797S EGFR, half-maximal degradation (DC50) was put at 0.42 nM and the “Dmax (%)” value is reported as 87.56%. On L858R/T790M/C797S EGFR, this molecule registered a DC50 of 0.546 nM and a Dmax of 88.4%.

Turning to `Cc1cc2cc(n1)-c1cnn(C)c1OCCC[C@@H](C)CN1/C(=N/C2=O)Nc2ccc(N3C[C@@H](C)N(C4CCN(c5cc(F)c([C@H]6CCC(=O)NC6=O)c(F)c5)CC4)C[C@H]3C)cc21` [Example 398, (R)-3-(4-(4-((2R,5R)-2,5-dimethyl-4-((R,E)-1^1,2^6,7-trimethyl-3-oxo-5^2,53-dihydro-1^1H,5^1H-11-oxa-4-aza-5(2,1)-benzo[d]imidazola-2(2,4)-pyridina-1(4,5)-pyrazolacycloundecaphane-5^6-yl)piperazin-1-yl)piperidin-1-yl)-2,6-difluorophenyl)piperidine-2,6-dione], in the test with Del19/T790M/C797S EGFR, half-maximal degradation (DC50) was put at 4.5 nM and the “Dmax (%)” value stood at 72.53%. At L858R/T790M/C797S EGFR, this molecule displayed a DC50 of 4.7 nM and a Dmax of 90.3%.

The record behind these values is patent US20240342292A1, “Compounds for the Degradation of EGFR Kinase” (BeiGene Switzerland GmbH, priority 2021, published 2024).
